The experiment has as its system c-myc. Nature of the experiment: Real Time RT-PCR in SW480 cells, c-myc. The experiment is classed as cell-based, human. Conditions: 25 μM; for ΔCT c-myc: relative to β-actin. Here is the method:
The RNeasy Midi Kit (Qiagen) was used for RNA extraction and Real Time RT-PCR was performed according to the protocol provided with the SYBR Green PCR Master Mix Kit (Perkin Elmer Biosystems, Shelton, Conn.). The primers used for cyclin D1, axin2, hnkd, c-myc, c-jun, and fra-1 amplifications were: cyclin D1 forward primer:5′-[…]-CCTGCTG-3′ (SEQ ID NO: 32) reverse primer: 5′-[…]-3′ (SEQ ID NO: 33) leading to a product size of approximately 300 bp; axin2 forward primer: 5′-[…] GGAAA-CT-3′ (SEQ ID NO: 34) and reverse primer: 5′-[…]-GAGA-3′ (SEQ ID NO: 35); hnkd forward primer: 5′-[…] TTGCGT-3′ (SEQ ID NO: 36) and the reverse primer: 5′-[…] ACGT-3′ (SEQ ID NO: 37); c-myc forward primer: 5′-GAA-[…] CTGC-3′ (SEQ ID NO: 38) and reverse primer: 5′-[…]-G-3′ (SEQ ID NO: 39); c-jun forward primer: 5′-[…]-3′ (SEQ ID NO: 40) and reverse primer: 5′-[…]-3′ (SEQ ID NO: 41); fra-1 forward primer: 5′-ACC-[…]-[…]-3′ (SEQ ID NO: 42) and reverse primer: 5′-[…]-TT-3′ (SEQ ID NO: 43). β-actin was used for normalization. […]
1 μg of mRNA, for each time point, was subjected to Real Time RT-PCR. Expression level of endogenous cyclin D1, c-myc, fibronectin, hnkd, axin2, c-jun, and BMP-4 were measured relative to β-actin. Quantitation of The ΔCycle of Threshold (CT) values was determined by subtracting the average values of each set by the corresponding average values obtained for β-actin. […]
The cyclin D1 gene is inappropriately expressed in many different tumor types, and is known to be a direct target of the Wnt/β-catenin pathway (Shtutman et al., “The cyclin D1 gene is a target of the beta-catenin/LEF-1 pathway,” Proc. Natl. Acad. Sci. USA 96:5522-27 (1999); Tetsu et al., “Beta-catenin regulates expression of cyclin D1 in colon carcinoma cells,” Nature 398:422-26 (1999)). […] Expression level of endogenous cyclin D1, c-myc, fibronectin, hnkd, axin2, c-jun, and BMP-4 were measured relative to β-actin. Quantitation of The ΔCycle of Threshold (CT) values was determined by subtracting the average values of each set by the corresponding average values obtained for β-actin. […]
For orientation: In qPCR the cycle at which signal appears reflects the starting amount.

Structures are written as SMILES.

The record followed here is patent US7531320B2, “Modulation of β-catenin/TCF-activated transcription” (priority 2003, dated 2009).

For `O=C1C(Cc2ccc(O)cc2)N2C(=O)CCN(C(=O)NCc3ccccc3)C2CN1Cc1cccc2ccccc12` (stereo not drawn) [COMPOUND 1], the “mRNA c-myc (direction)” value is given as “↑”. For the same compound, the ΔCT c-myc (4 hours) was −0.9. The ΔCT c-myc (8 hours) is recorded as −2.4.
